Measurements taken from ChEMBL document CHEMBL1201862, “PubChem BioAssay data set” (2004).
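Briefly, cells in 96-well plates were exposed to five compound concentrations for 48 h, and endpoints were estimated by linear interpolation. GI50 marks 50% less growth.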 Calls of active or inactive are those of the source. Rule as the data show it: active = GI50 up to about 1.1 µM and inactive = higher.

Experiments:
Assay in all cases: NCI tumour cell line growth inhibition, 48 h
M19-MEL = system: M19-MEL
DLD-1 = system: DLD-1
SNB-78 = system: SNB-78
XF498 = system: XF498
DMS-273 = system: DMS-273
BT-549 = system: BT-549
RXF 631 = system: RXF 631
LXFL 529 = system: LXFL 529
Hs-578T = system: Hs-578T

| Structure (SMILES) | GI50 (M19-MEL) | GI50 (DLD-1) | GI50 (SNB-78) | GI50 (XF498) | GI50 (DMS-273) | GI50 (BT-549) | GI50 (RXF 631) | GI50 (LXFL 529) | GI50 (Hs-578T) |
| --- | --- | --- | --- | --- | --- | --- | --- | --- | --- |
| COc1c(C=O)c2c(c(OC)c1OC)-c1ccc(OC)c(=O)cc1[C@@H](NC(C)=O)CC2 | 0.0764 µM (active) | 0.0614 µM (active) | < 0.0147 µM (active) | 0.0773 µM (active) | 0.029 µM (active) | 21.1 µM (inactive) | 0.229 µM (active) | 0.0191 µM (active) | < 0.01 µM (active) |
| CNS(=O)(=O)NNS(=O)(=O)c1ccc(F)cc1 | > 100 µM (inactive) | > 100 µM (inactive) | – | > 100 µM (inactive) | > 100 µM (inactive) | – | > 100 µM (inactive) | > 100 µM (inactive) | – |
| CC(C)(C)c1cc(O)c2c(c1O)C(=O)CCC2 | 30.5 µM (inactive) | 37.9 µM (inactive) | 32.7 µM (inactive) | 31.1 µM (inactive) | 34.8 µM (inactive) | – | 57.7 µM (inactive) | 34.8 µM (inactive) | – |
| Nc1nc(N)c(-c2ccccc2)c(C(=O)Nc2nccs2)n1 | > 100 µM (inactive) | > 100 µM (inactive) | > 100 µM (inactive) | – | – | – | > 100 µM (inactive) | > 100 µM (inactive) | – |
| Cc1ccc(Nc2nc(C)c(C(/C=C/c3ccc4c(c3)OCO4)=N/Nc3ccc([N+](=O)[O-])cc3[N+](=O)[O-])s2)c([N+](=O)[O-])c1 | 59.7 µM (inactive) | 27.6 µM (inactive) | 50.7 µM (inactive) | 22.1 µM (inactive) | 25.9 µM (inactive) | – | 42.5 µM (inactive) | 6.03 µM (inactive) | – |
| COc1cc(C(C)c2cc3c(cc2OCCNC(=O)COc2cc4c(cc2C(C)c2cc(OC)c(OC)c(OC)c2)OCO4)OCO3)cc(OC)c1OC (stereo not drawn) | 80.2 µM (inactive) | > 100 µM (inactive) | – | – | 75.9 µM (inactive) | – | 86.3 µM (inactive) | 44.2 µM (inactive) | – |
| CCc1cccc(CC)c1NC(=S)NC(=O)c1ccc(Br)cc1 | 35.2 µM (inactive) | 34.9 µM (inactive) | 64.7 µM (inactive) | 26.3 µM (inactive) | 49 µM (inactive) | – | > 100 µM (inactive) | 43.1 µM (inactive) | 3.76 µM (inactive) |
| COc1cc2c(cc1O)C(C)Cc1cc3c(cc1N(C)CC2)OCO3 (stereo not drawn) | 5.81 µM (inactive) | 4.16 µM (inactive) | 5.12 µM (inactive) | 7.19 µM (inactive) | 2.87 µM (inactive) | – | 18.7 µM (inactive) | 5.41 µM (inactive) | – |
| CCC(=O)OC[n+]1ccc2c(C)c3[nH]c4ccc(OC)cc4c3c(C)c2c1 | 0.266 µM (active) | 0.0435 µM (active) | 0.693 µM (active) | 1.22 µM (inactive) | – | – | 0.0843 µM (active) | 0.0582 µM (active) | – |
| COc1ccc(C(=O)OC2C=COC(C)C2OC(=O)c2ccc(OC)cc2)cc1 (stereo not drawn) | 30.7 µM (inactive) | 16.4 µM (inactive) | 22.5 µM (inactive) | > 45 µM (inactive) | 23.3 µM (inactive) | – | 26.4 µM (inactive) | 14.5 µM (inactive) | – |
| [O-]/[N+](=C\c1ccccc1)[C@H](COCc1ccccc1)c1ccccc1 | > 100 µM (inactive) | > 100 µM (inactive) | 66.5 µM (inactive) | 27.8 µM (inactive) | 93.8 µM (inactive) | – | > 100 µM (inactive) | > 100 µM (inactive) | – |
| CN(C)CCNC(=O)c1cccc2nc3c(Cl)cccc3nc12 | 2.96 µM (inactive) | 4.43 µM (inactive) | – | 2.92 µM (inactive) | 5.09 µM (inactive) | – | 6.92 µM (inactive) | 9.84 µM (inactive) | – |
| CCCCCCCCCCCCCCCCCCN(C)CC(COC)OP(=O)([O-])OCC[N+](C)(C)C (stereo not drawn) | 2.75 µM (inactive) | 1.47 µM (inactive) | 3.56 µM (inactive) | 4.93 µM (inactive) | 0.625 µM (active) | 2.53 µM (inactive) | 5.25 µM (inactive) | 2.21 µM (inactive) | 4.93 µM (inactive) |
| O=C(/C=C\c1cccc2ccccc12)c1ccc(Cl)cc1Cl | 19.1 µM (inactive) | 22 µM (inactive) | 20.3 µM (inactive) | – | 18.8 µM (inactive) | – | 23.8 µM (inactive) | 18.3 µM (inactive) | – |
| N#CC(C#N)=C(N)/C(C#N)=C/c1ccc(O)c(O)c1 | > 100 µM (inactive) | 71.3 µM (inactive) | > 100 µM (inactive) | > 100 µM (inactive) | 59.2 µM (inactive) | > 100 µM (inactive) | – | 40.7 µM (inactive) | 48.4 µM (inactive) |
